Where two headings read alike, the source gives them in different places.
Experiments:
FGFR1 (h) = FGFR1 (h) (Homo sapiens, UniProt P11362); test: FGFR1 (enzymatic assay), TR-FRET; type: biochemical; conditions: read-out: FGFR 1 pIC50 (converted)
Procedure: (§1) In a final reaction volume of 30 μL, FGFR1 (h) (25 ng/ml) was incubated with 50 mM HEPES pH 7.5, 6 mM MnCl2, 1 mM DTT, 0.1 mM Na3VO4, 0.01% Triton-X-100, 500 nM Btn-Flt3 and 5 μM ATP in the presence of compound (1% DMSO final). […] Time-Resolved Fluorescence Resonance Energy Transfer (TR-FRET) signal (ex340 nm. Em 620 nm, em 655 nm) was measured afterwards and results are expressed in RFU (Relative Fluorescence Units).

FGFR3 (h) = FGFR3 (h) (Homo sapiens, UniProt P22607); test: FGFR3 (enzymatic assay), TR-FRET; type: biochemical; conditions: read-out: FGFR 3 pIC50 (converted)
Procedure: as §1, with “μL, FGFR3” for “μL, FGFR1”, “(h) (40” for “(h) (25”, “and 25” for “and 5”

[1] = test system: Ba/F3-FGFR1-transfected cells in the presence of 10 ng/ml murine IL3; test: Ba/F3-FGFR1 (plus IL3) cellular proliferation counterscreen, Alamar Blue; type: cell-based; conditions: Mus musculus
In short: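 Proliferation is estimated from Alamar Blue fluorescence after cells grow for one day with test compound in 10% FBS medium at 37 °C, with 4 h dye incubation before reading.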

FGFR2 (h) = FGFR2 (h) (Homo sapiens, UniProt P21802); test: FGFR2 (enzymatic assay), TR-FRET; type: biochemical; conditions: read-out: FGFR 2 pIC50 (converted)
Procedure: as §1, with “μL, FGFR2” for “μL, FGFR1”, “(h) (150” for “(h) (25”, “and 0.4” for “and 5”, “in” for “in RFU”

[2] = test system: Ba/F3-Flt3-transfected cells in the presence of 10 ng/ml murine IL3; test: Ba/F3-Flt3 (plus IL3) cellular proliferation counterscreen, Alamar Blue; type: cell-based; conditions: Mus musculus, read-out: BAF3-FLT3 (PLUS IL3) 96 well pIC50 (converted)
[3] = test system: Ba/F3-KDR-transfected cells in the presence of 10 ng/ml murine IL3; test: Ba/F3-KDR (plus IL3) cellular proliferation counterscreen, Alamar Blue; type: cell-based; conditions: Mus musculus; plus 10 ng/ml murine IL3; read-out: BAF3-KDR (PLUS IL3) 384 well pIC50 (converted)
In short: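 Measured with and without 10 ng/ml murine IL3: Ba/F3-KDR cells treated 24 h with compound, then 4 h Alamar Blue, fluorescence read at 540/590 nm.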

[4] = plus IL3, 96 well, read-out: BAF3-FGFR 1 (PLUS IL3) 96 well pIC50 (converted)
[5] = plus IL3, 384 well, read-out: BAF3-FGFR 1 (PLUS IL3) 384 well pIC50 (converted)

Chain of FGFR1 (h) (P11362 22-822): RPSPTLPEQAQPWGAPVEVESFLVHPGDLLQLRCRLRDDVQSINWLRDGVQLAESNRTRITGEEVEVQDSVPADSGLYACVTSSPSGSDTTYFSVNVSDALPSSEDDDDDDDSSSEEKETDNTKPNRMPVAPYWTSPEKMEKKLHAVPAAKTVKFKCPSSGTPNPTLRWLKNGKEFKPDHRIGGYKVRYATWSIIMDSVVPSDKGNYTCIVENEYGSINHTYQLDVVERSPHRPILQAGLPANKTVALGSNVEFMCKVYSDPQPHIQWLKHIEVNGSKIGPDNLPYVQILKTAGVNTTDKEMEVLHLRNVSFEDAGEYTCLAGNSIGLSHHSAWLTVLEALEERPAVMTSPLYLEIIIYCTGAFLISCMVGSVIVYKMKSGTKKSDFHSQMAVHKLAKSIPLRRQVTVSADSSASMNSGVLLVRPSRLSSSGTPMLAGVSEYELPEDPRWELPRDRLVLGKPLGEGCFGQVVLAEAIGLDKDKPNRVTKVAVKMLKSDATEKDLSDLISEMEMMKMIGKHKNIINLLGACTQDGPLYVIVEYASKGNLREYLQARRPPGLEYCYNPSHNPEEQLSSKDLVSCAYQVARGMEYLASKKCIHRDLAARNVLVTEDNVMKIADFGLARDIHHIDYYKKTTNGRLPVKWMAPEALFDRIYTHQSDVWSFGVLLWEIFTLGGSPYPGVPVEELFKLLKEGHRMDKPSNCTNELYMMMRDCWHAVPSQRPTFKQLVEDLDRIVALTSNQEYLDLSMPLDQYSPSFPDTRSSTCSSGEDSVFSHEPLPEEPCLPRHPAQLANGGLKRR
Chain of FGFR2 (h) (P21802 22-821): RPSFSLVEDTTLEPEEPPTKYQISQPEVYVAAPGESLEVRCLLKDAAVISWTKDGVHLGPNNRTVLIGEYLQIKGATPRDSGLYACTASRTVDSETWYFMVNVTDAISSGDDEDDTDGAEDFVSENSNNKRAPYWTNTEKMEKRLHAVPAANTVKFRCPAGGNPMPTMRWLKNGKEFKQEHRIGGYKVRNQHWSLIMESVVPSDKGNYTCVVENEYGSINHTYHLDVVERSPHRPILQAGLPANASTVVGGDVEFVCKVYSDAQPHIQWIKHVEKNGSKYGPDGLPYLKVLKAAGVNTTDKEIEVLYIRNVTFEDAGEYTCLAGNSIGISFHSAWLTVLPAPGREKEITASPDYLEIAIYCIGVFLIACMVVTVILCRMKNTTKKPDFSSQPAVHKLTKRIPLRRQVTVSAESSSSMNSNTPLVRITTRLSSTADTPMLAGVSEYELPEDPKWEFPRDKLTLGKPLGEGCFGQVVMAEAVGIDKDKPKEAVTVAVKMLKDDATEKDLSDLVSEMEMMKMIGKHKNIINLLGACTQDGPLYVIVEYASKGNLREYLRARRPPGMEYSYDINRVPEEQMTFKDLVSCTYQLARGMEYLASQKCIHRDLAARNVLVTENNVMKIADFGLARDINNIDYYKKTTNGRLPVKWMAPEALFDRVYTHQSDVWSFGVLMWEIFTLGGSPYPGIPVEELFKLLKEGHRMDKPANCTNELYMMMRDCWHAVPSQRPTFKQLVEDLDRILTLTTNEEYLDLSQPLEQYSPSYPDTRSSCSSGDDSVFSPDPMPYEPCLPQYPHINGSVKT
Chain of FGFR3 (h) (P22607 23-806): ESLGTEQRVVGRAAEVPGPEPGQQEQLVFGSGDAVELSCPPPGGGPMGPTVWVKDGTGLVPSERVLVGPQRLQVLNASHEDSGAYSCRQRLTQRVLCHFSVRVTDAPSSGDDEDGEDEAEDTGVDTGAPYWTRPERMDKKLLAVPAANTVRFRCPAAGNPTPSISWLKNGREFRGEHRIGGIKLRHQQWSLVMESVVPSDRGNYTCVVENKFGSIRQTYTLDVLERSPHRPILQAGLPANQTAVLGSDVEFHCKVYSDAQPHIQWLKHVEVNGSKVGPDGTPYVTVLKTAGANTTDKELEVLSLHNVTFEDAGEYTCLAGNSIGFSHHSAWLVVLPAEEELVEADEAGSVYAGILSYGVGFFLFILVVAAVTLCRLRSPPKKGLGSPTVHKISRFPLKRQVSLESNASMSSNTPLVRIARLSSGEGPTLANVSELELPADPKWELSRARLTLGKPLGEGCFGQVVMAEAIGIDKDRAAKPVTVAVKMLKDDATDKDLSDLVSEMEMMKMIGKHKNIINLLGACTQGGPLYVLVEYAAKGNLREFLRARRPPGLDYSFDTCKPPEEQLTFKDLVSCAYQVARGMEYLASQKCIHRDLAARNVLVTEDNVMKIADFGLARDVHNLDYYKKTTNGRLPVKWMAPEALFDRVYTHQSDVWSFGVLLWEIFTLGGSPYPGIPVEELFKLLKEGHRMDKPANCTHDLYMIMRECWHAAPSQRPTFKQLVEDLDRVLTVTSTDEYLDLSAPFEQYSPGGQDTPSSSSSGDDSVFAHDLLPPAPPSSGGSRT

IC50 (FGFR1 (h)) [nM] | IC50 (FGFR3 (h)) [nM] | IC50 (FGFR2 (h)) [nM] | SMILES | IC50 [1, 4] [nM] | IC50 [1, 5] [nM] | IC50 ([2]; plus 10 ng/ml murine IL3) [nM] | IC50 ([2]; plus IL3, 96 well) [nM] | IC50 [3] [nM]
135 | 81.3 | 537 | COc1cc(OC)cc(N(CC2CC2)c2ccc3ncc(-c4ccn[nH]4)nc3c2)c1 [Compound 58] | > 10000 | > 10000 | > 10000 |  | 
575 | 955 | 1410 | COc1cc(OC)cc(N(CC2CC2)c2ccc3ncc(-c4nccn4C)nc3c2)c1 [Compound 60] | > 10000 | > 10000 | > 10000 |  | 
933 | 339 | > 1000 | COc1cc(OC)cc(N(CC2CC2)c2ccc3ncc(-n4ccc(C)n4)nc3c2)c1 [Compound 31] | > 10000 | > 10000 | > 10000 |  | 
 |  |  | COc1cc(OC)cc(N(CC2CC2)c2ccc3ncc(-c4ccc5c(ccn5C)c4)nc3c2)c1 [Compound 20] |  | > 10000 |  | > 10000 | 
~363 | 550 | ~912 | COc1cc(OC)cc(N(CC2CC2)c2ccc3ncc(C(=O)NCCN4CCOCC4)nc3c2)c1 [Compound 96] |  |  | > 10000 |  | 
309 | 148 | 229 | COc1cc(OC)cc(N(CC2CC2)c2ccc3ncc(-c4nnn(C)n4)nc3c2)c1 [Compound 82] |  |  | > 10000 |  | 
57.5 | 64.6 | 178 | COc1cc(OC)cc(N(CC2CC2)c2ccc3ncc(-c4nnn[nH]4)nc3c2)c1 [Compound 41] | > 10000 | > 10000 | > 10000 |  | 
437 | 191 | 676 | COc1cc(OC)cc(N(CC2CC2)c2ccc3ncc(Nc4nccs4)nc3c2)c1 [Compound 98] |  |  | > 10000 |  | 
> 1000 | > 1000 | > 1000 | COc1cc(OC)cc(N(CC2CC2)c2ccc3ncc(Nc4nncs4)nc3c2)c1 [Compound 102] |  |  | > 10000 |  | 
 |  |  | COc1cc(OC)cc(N(CC2CC2)c2ccc3ncc(-c4cn(C)cn4)nc3c2)c1 [Compound 21] | > 10000 | > 10000 | > 10000 |  | 
389 | 117 | ~417 | COc1cc(OC)cc(N(CC2CC2)c2ccc3ncc(-c4ocnc4C)nc3c2)c1 [Compound 104] |  | > 10000 |  |  | > 10000
 |  |  | COc1cc(OC)cc(N(CC2CC2)c2ccc3ncc(-c4ccn(C)c4)nc3c2)c1 [Compound 73] | > 10000 | > 10000 | > 10000 |  | 
575 | 676 | 2000 | COc1cc(OC)cc(N(CC2CC2)c2ccc3ncc(-c4nccs4)nc3c2)c1 [Compound 97] |  |  | > 10000 |  | 
> 1000 | > 1000 | > 1000 | COc1cc(OC)cc(N(CC2CC2)c2ccc3ncc(C(=O)NCc4ccc(F)cc4)nc3c2)c1 [Compound 101] |  |  | > 10000 |  | 
4.37 | 6.92 | 12 | COCCN(c1cc(OC)cc(OC)c1)c1ccc2ncc(-c3ccn(C)c3)nc2c1 [Compound 6] |  | > 10000 |  |  | > 10000
18.6 | 7.41 | 20.9 | COc1cc(OC)cc(N(CCCO)c2ccc3ncc(-c4cccnc4)nc3c2)c1 [Compound 112] |  | > 10000 |  |  | > 10000
> 1000 | ~1000 | > 1000 | COc1cc(OC)cc(N(CC2CC2)c2ccc3ncc(-c4cccn4C)nc3c2)c1 [Compound 103] |  |  | > 10000 |  | 
20.4 | 11.7 | 22.4 | COc1cc(OC)cc(N(CCCO)c2ccc3ncc(-c4ccc(F)nc4)nc3c2)c1 [Compound 117] |  | > 10000 |  |  | > 10000
 |  |  | COc1cc(OC)cc(N(CC2CC2)c2ccc3ncc(-c4cc[nH]c4)nc3c2)c1 [Compound 36] | > 10000 | > 10000 | > 10000 |  | 

Source: patent US10052320B2, “Substituted quinoxalines as FGFR kinase inhibitors” (ASTEX THERAPEUTICS LIMITED, priority 2011, dated 2018)
